Measured values reported in patent US20020091086A1, “Peptides that block viral infectivity and methods of use thereof” (priority 1999, published 2002).
“And” between values parts separate entries of the source, which are not always exact repeats. Identical values can stand only once. Peptide text beside a SMILES is read from it.

Legend:
HIV-1 DNA = experiment: Southern blot of proviral DNA in HIV-1 infected H-9 cells; assay type: cell-based; settings: 0-2,000 μM; first 24 h
Description: To study proviral DNA and viral RNA synthesis, DNA and RNA from HIV-1 infected H-9 cells cultured in the presence of a small peptide were prepared at various time points (0-48 h).

HIV-1 SF-2 virus [1] = experiment: electron microscopy of HIV-1 particles from infected HUT78 cells; assay type: cell-based; settings: 1 μM or 10 μM added 3, 5 or 7 days post infection; cells fixed day 14
Description: In this set of experiments, HUT78 cells were infected with HIV-1 SF-2 virus at 300TCID50 for 1 hr at 37° C. Subsequently, the infected cells were washed and pelleted 3 times, as described in Example 2. Thereafter, the cells were resuspended in RPMI culture medium supplemented with 10% FBS, antibiotics (100 u/ml) and polybrene (3.2 μg/ml). GPG-NH2 was then added into the cell cultures 3, 5 or 7 days post infection at concentration of 1 μM or 10 μM. A control sample was administered 0.5μM Ritonavir (a protease inhibitor).
The cells were cultured until day 14, at which point, the cells were fixed in 2.5% glutaraldehyde by conventional means. The fixed cells were then postfixed in 1% OSO4 and were dehydrated, embedded with epoxy resins, and the blocks were allowed to polymerize. Epon sections of virus infected cells were made approximately 60-80 nm thin in order to accommodate the width of the nucleocapsid. The sections were mounted to grids stained with 1.0% uranyl acetate and were analyzed in a Zeiss CEM 902 microscope at an accelerating voltage of 80 kV. The microscope was equipped with a spectrometer to improve image quality and a liquid nitrogen cooling trap was used to reduce beam damage. The grids having sections of control and GPG-NH2 incubated cells were examined in several blind studies.

recombinant p24 = target: T1, recombinant p24 (Human immunodeficiency virus type 1 group M subtype B, UniProt P04591); experiment: dialysis-based binding assay with 14C-GPG-NH2, p24; design: species or system HIV-1
T1 construct: purchased AIDS program, NCIB (gift, not bought)
Description: A dialysis-based binding assay was conducted using a dialysis membrane with a pore size of less than 10 kD. (Slide-A-Lyzer, Pierce). Fifty microliters of a 10 μM stock of the recombinant proteins p24 and gp120 (gifts from the AIDS program, NCIB) and BSA (Sigma) were introduced into separate dialysis membranes and the proteins were dialyzed at 4° C. for 2 days against a 500 ml solution composed of 150 mM NaCl and 50 mM Tris-HCl, pH 7.4 buffer and 27.5 μM of ^14C-GPG-NH2 (Amersham Ltd. UK). Subsequently, ten or five microliter aliquots of the dialyzed p24, gp120, and BSA were removed and mixed with 3 ml of ReadySafe (Beckman) in a scintillation vial. The C^14 was then detected by scintillation counting.

[2] = system: HIV-1 isolate p7261 (low AZT); experiment: resistant HIV-1 isolates in PBMC, p24 ELISA; assay type: cell-based; settings: GPG 100 μM, 14 days post infection
[3] = system: HIV-1 isolate p7300 (low PI); experiment: resistant HIV-1 isolates in PBMC, p24 ELISA; assay type: cell-based; settings: GPG 100 μM, 14 days post infection
HIV-1Bru wild-type = experiment: infectivity in MT-2 cells, p24 ELISA, wild-type; assay type: cell-based
Description: Accordingly, the ability of GPG-NH2 to inhibit the infectivity of wild-type and V3-loop deletion mutants (GPG domain) in MT-2 cells was determined. In these experiments, approximately 200,000 MT-2 cells were infected with HIV-1Bru wild-type and GPG-deleted mutants mp8 and mp10 at 25 TCID50 to test the inhibitory effect of GPG-NH2 The MT-2 cells were resuspended in 1 ml of RPMT 1640 medium supplemented with 10% (v/v) heat-inactivated fetal bovine serum (FBS, GIBCO), penicillin (100μ/ml), streptomycin (100μ/ml) and Polybrene (Sigma 2 μg/ml) with or without the presence of GPG-NH2 at concentration 20 of μM and 100 μM. Thereafter, viruses were added at 25 TCID50 in a volume of 20-30 μl. Cells were incubated with virus at 37° C. for 16 hr then loosely pelleted by centrifugation at 170×g for 7 minutes. The cells were then washed three times in RPMI medium without peptides at room temperature by cell sedimentation at 170×g for 7 minutes as above. After the final wash, the cells were resuspended in RPMI culture medium in 24-well plate (Costar corporation) then kept at 37° C. in 5% CO2 with humidity. Culture supernatants were collected when medium was changed at day 4, 7, 11 and 14 post infection. To monitor the replication of virus, HIV-1 p24 antigen protein in the supernatants from day 7 and 14 was assayed by a ELISA kit (Abbott Laboratories) which has a linear dose-response range from 20 pg to 640 pg of p24 per ml and the p24 amount can be determined with aid of the regression line.

HIV-1 SF-2 virus [4] = experiment: combination of GPG-NH2 with AZT or Ritonavir in HUT78 cells, p24; assay type: cell-based
HSV-1 = assay type: cell-based; settings: concentrations up to 1 mM
CEM-SS = experiment: cytotoxicity, cell counting; settings: 40 mM, 3 days
Description: The in vitro 50% cytotoxic concentrations (CC50) of various cell lines was also assessed. Accordingly, different concentrations of GPG-NH2, up to 40 mM, was supplemented into the medium culture of T-cell lines HUT78, H9, CEM-SS, MT-2 and (non) induced ACH-2, as well as, the macrophage derived cell lines […], THP-1 and (non) induced U-1 cells. After 3 days of incubation, the number of cells were counted.

[5] = four week oral toxicology study in rats; assay type: in vivo; settings: orally up to 1 g per kilo bodyweight per day, twenty eight days
Description: In this example, the results from several in vivo toxicology studies on small peptides administered in large doses to rodents are presented. In a first experiment, a large single dose of small peptide was delivered to mice and the toxic effects were analyzed. […] In a second experiment, several doses of varying amounts of a small peptide were delivered to mice for almost three weeks. Groups of mice (five mice in each group) were given intraperitoneal injections of GPG-NH2 (0.01, 0.1 and 1 g per kilo bodyweight and day, respectively) starting at an age of 6 days. Daily injections were continued for 18 days. […] In a similar experiment, a four week toxicology study of GPG-NH2 was performed by Scantox A/S in Denmark. GPG-NH2 was given orally to rats at doses up to 1 g per kilo bodyweight per day for twenty eight days.

NCC(=O)N1CCC[C@H]1C(=O)NCC(N)=O [GPG-NH2, glycyl-prolyl-glycine amide] (H-Gly-Pro-Gly-NH2)
HIV-1 entry and proviral DNA synthesis (HIV-1 DNA): no inhibitory effect
viral nucleocapsid formation, electron microscopy (HIV-1 SF-2 virus [1]): interrupted proper viral nucleocapsid formation
radioactive GPG-NH2 associated with p24 (recombinant p24; dialysis 2 days at 4° C. against 27.5 μM 14C-GPG-NH2, buffer 1.816): 13.712 μCi/ml
times buffer, p24 (recombinant p24; dialysis against 27.5 μM 14C-GPG-NH2): 7.5 times buffer and 7.551 times buffer
% reduction [2]: (100%)
HIV-1 p24 [2]: <500 pg/mL
% reduction [3]: (100%)
HIV-1 p24 [3]: <500 pg/mL
p24 (HIV-1Bru wild-type; GPG 20 μM, Day 7, WT): 23900 pg/mL
reduction (%) (HIV-1Bru wild-type; GPG 20 μM, Day 7, WT): 29%
p24 (HIV-1Bru wild-type; GPG 20 μM, Day 14, WT): 223000 pg/mL
reduction (%) (HIV-1Bru wild-type; GPG 20 μM, Day 14, WT): 38%
p24 (HIV-1Bru wild-type; GPG 100 μM, Day 7, WT): 3390 pg/mL
reduction (%) (HIV-1Bru wild-type; GPG 100 μM, Day 7, WT): 90%
p24 (HIV-1Bru wild-type; GPG 100 μM, Day 14, WT): 181000 pg/mL
reduction (%) (HIV-1Bru wild-type; GPG 100 μM, Day 14, WT): 49%
effect on inhibition of HIV-1 replication in the presence of AZT (HIV-1 SF-2 virus [4]; combination with AZT): synergistically
antiviral effect together with Ritonavir (HIV-1 SF-2 virus [4]; combination with Ritonavir): additive antiviral effect
HSV-1 replication (HSV-1): failed to reduce HSV-1 replication
decrease in cell number (CEM-SS): less than 20%
signs of toxicity [5]: No signs of toxicity
